# Data taken from patent US20080051387A1, “TETRAHYDROPYRIDO[3,4-D]PYRIMIDINES AND RELATED ANALOGUES” (priority 2006, published 2008).
# Molecular target: T1, chimeric human H3 receptor (Homo sapiens, UniProt Q9Y5N1)
# T1 construct: rat Galpha-i2 (Gnai2, rat); made in house; host or cells: Sf9 insect cells (baculovirus); P2 membranes
# Experiment: Chimeric human H3 receptor screening GTP binding assay (inhibition of histamine-stimulated GTP-gamma35S binding, Example 8)
# Format: biochemical
# Settings: 1 h; assay of Example 8; symbol "!" in column headed Ki; read-out: percent inhibition of agonist-induced GTP-gammaS binding to H3
# In short: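 Sf9 membranes co-expressing chimeric human H3 receptor and heterotrimeric G-protein (35 μg protein) incubated 60 min at room temperature with 4 μM compound, 1 μM histamine and 125 pM GTP-gamma35S in pH 7.4 buffer with 10 μM GDP. Filter-bound radioactivity, nonspecific (10 μM GTP-gammaS) subtracted, reported as % inhibition of histamine signal.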
# T1 sequence (Q9Y5N1 with tags, fused parts or gaps): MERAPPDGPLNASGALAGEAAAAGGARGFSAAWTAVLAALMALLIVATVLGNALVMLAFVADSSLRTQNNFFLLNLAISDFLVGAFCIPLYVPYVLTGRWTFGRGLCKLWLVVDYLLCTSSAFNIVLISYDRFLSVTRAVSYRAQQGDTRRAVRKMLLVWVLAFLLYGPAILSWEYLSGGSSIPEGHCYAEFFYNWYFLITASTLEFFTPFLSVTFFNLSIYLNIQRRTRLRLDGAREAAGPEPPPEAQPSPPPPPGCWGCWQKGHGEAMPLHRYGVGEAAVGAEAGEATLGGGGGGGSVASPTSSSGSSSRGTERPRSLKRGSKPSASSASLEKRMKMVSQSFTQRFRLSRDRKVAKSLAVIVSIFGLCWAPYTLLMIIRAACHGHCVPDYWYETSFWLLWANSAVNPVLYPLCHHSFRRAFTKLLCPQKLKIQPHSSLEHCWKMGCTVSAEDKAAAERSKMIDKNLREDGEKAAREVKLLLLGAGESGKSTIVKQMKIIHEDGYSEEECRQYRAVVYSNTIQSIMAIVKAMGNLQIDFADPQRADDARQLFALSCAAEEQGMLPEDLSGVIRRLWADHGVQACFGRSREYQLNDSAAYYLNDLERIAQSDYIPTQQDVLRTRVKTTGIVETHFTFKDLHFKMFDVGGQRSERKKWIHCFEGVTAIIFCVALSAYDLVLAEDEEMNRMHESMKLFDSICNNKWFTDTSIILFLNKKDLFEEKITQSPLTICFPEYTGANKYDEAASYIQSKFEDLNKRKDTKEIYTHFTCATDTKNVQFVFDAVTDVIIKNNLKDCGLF
row,SMILES,inhibition at 4 µM
1,"Cc1ccccc1CC(=O)N1CCc2cnc(N3CCN(C4CCC4)CC3)nc2CC1 [Compound 305, 2-(4-cyclobutylpiperazin-1-yl)-7-[(2-methylphenyl)acetyl]-6,7,8,9-tetrahydro-5H-pyrimido[4,5-d]azepine]",≥ 90%
2,"COc1ccccc1CC(=O)N1CCc2cnc(N3CCN(C4CCC4)CC3)nc2CC1 [Compound 306, 2-(4-cyclobutylpiperazin-1-yl)-7-[(2-methoxyphenyl)acetyl]-6,7,8,9-tetrahydro-5H-pyrimido[4,5-d]azepine]",≥ 90%
3,"CCOc1ccccc1CC(=O)N1CCc2cnc(N3CCN(C4CCC4)CC3)nc2CC1 [Compound 307, 2-(4-cyclobutylpiperazin-1-yl)-7-[(2-ethoxyphenyl)acetyl]-6,7,8,9-tetrahydro-5H-pyrimido[4,5-d]azepine]",≥ 90%
4,"COc1ccc(OC)c(CC(=O)N2CCc3cnc(N4CCN(C5CCC5)CC4)nc3CC2)c1 [Compound 308, 2-(4-cyclobutylpiperazin-1-yl)-7-[(2,5-dimethoxyphenyl)acetyl]-6,7,8,9-tetrahydro-5H-pyrimido[4,5-d]azepine]",≥ 90%
5,"O=C(Cc1cccc2ccccc12)N1CCc2cnc(N3CCN(C4CCC4)CC3)nc2CC1 [Compound 309, 2-(4-cyclobutylpiperazin-1-yl)-7-(1-naphthylacetyl)-6,7,8,9-tetrahydro-5H-pyrimido[4,5-d]azepine]",≥ 90%
6,"COc1ccc(CC(=O)N2CCc3cnc(N4CCN(C5CCC5)CC4)nc3CC2)c(OC)c1 [Compound 310, 2-(4-cyclobutylpiperazin-1-yl)-7-[(2,4-dimethoxyphenyl)acetyl]-6,7,8,9-tetrahydro-5H-pyrimido[4,5-d]azepine]",≥ 90%
7,"COc1ccc(Br)cc1CC(=O)N1CCc2cnc(N3CCN(C4CCC4)CC3)nc2CC1 [Compound 311, 7-[(5-bromo-2-methoxyphenyl)acetyl]-2-(4-cyclobutylpiperazin-1-yl)-6,7,8,9-tetrahydro-5H-pyrimido[4,5-d]azepine]",≥ 90%
8,"COc1cccc(CC(=O)N2CCc3cnc(N4CCN(C5CCC5)CC4)nc3CC2)c1OC [Compound 312, 2-(4-cyclobutylpiperazin-1-yl)-7-[(2,3-dimethoxyphenyl)acetyl]-6,7,8,9-tetrahydro-5H-pyrimido[4,5-d]azepine]",≥ 90%
9,"O=C(Cc1ccccc1OC(F)(F)F)N1CCc2cnc(N3CCN(C4CCC4)CC3)nc2CC1 [Compound 313, 2-(4-cyclobutylpiperazin-1-yl)-7-{[2-(trifluoromethoxy)phenyl]acetyl}-6,7,8,9-tetrahydro-5H-pyrimido[4,5-d]azepine]",≥ 90%
10,"O=C(Cc1ccccc1OCc1ccccc1)N1CCc2cnc(N3CCN(C4CCC4)CC3)nc2CC1 [Compound 314, 7-{[2-(benzyloxy)phenyl]acetyl}-2-(4-cyclobutylpiperazin-1-yl)-6,7,8,9-tetrahydro-5H-pyrimido[4,5-d]azepine]",≥ 90%
11,"O=C(COc1ccccc1)N1CCc2cnc(N3CCN(C4CCC4)CC3)nc2CC1 [Compound 315, 2-(4-cyclobutylpiperazin-1-yl)-7-(phenoxyacetyl)-6,7,8,9-tetrahydro-5H-pyrimido[4,5-d]azepine]",≥ 90%
12,"Cc1ccc(OCC(=O)N2CCc3cnc(N4CCN(C5CCC5)CC4)nc3CC2)cc1 [Compound 316, 2-(4-cyclobutylpiperazin-1-yl)-7-[(4-methylphenoxy)acetyl]-6,7,8,9-tetrahydro-5H-pyrimido[4,5-d]azepine]",≥ 90%
13,"O=C(COc1ccc(F)cc1)N1CCc2cnc(N3CCN(C4CCC4)CC3)nc2CC1 [Compound 317, 2-(4-cyclobutylpiperazin-1-yl)-7-[(4-fluorophenoxy)acetyl]-6,7,8,9-tetrahydro-5H-pyrimido[4,5-d]azepine]",≥ 90%
14,"COc1cc(Cl)ccc1OCC(=O)N1CCc2cnc(N3CCN(C4CCC4)CC3)nc2CC1 [Compound 318, 7-[(4-chloro-2-methoxyphenoxy)acetyl]-2-(4-cyclobutylpiperazin-1-yl)-6,7,8,9-tetrahydro-5H-pyrimido[4,5-d]azepine]",≥ 90%
15,"O=C(COc1ccc(OC(F)(F)F)cc1)N1CCc2cnc(N3CCN(C4CCC4)CC3)nc2CC1 [Compound 319, 2-(4-cyclobutylpiperazin-1-yl)-7-{[4-(trifluoromethoxy)phenoxy]acetyl}-6,7,8,9-tetrahydro-5H-pyrimido[4,5-d]azepine]",≥ 90%
16,"O=C(COc1ccccc1Cl)N1CCc2cnc(N3CCN(C4CCC4)CC3)nc2CC1 [Compound 320, 7-[(2-chlorophenoxy)acetyl]-2-(4-cyclobutylpiperazin-1-yl)-6,7,8,9-tetrahydro-5H-pyrimido[4,5-d]azepine]",≥ 90%
17,"Cc1ccccc1OCC(=O)N1CCc2cnc(N3CCN(C4CCC4)CC3)nc2CC1 [Compound 321, 2-(4-cyclobutylpiperazin-1-yl)-7-[(2-methylphenoxy)acetyl]-6,7,8,9-tetrahydro-5H-pyrimido[4,5-d]azepine]",≥ 90%

row,SMILES,inhibition at 4 µM
1,"Cc1cccc(OCC(=O)N2CCc3cnc(N4CCN(C5CCC5)CC4)nc3CC2)c1 [Compound 322, 2-(4-cyclobutylpiperazin-1-yl)-7-[(3-methylphenoxy)acetyl]-6,7,8,9-tetrahydro-5H-pyrimido[4,5-d]azepine]",≥ 90%
2,"COc1ccccc1OCC(=O)N1CCc2cnc(N3CCN(C4CCC4)CC3)nc2CC1 [Compound 323, 2-(4-cyclobutylpiperazin-1-yl)-7-[(2-methoxyphenoxy)acetyl]-6,7,8,9-tetrahydro-5H-pyrimido[4,5-d]azepine]",≥ 90%
3,"COc1cccc(OCC(=O)N2CCc3cnc(N4CCN(C5CCC5)CC4)nc3CC2)c1 [Compound 324, 2-(4-cyclobutylpiperazin-1-yl)-7-[(3-methoxyphenoxy)acetyl]-6,7,8,9-tetrahydro-5H-pyrimido[4,5-d]azepine]",≥ 90%
4,"COc1ccc(OCC(=O)N2CCc3cnc(N4CCN(C5CCC5)CC4)nc3CC2)cc1 [Compound 325, 2-(4-cyclobutylpiperazin-1-yl)-7-[(4-methoxyphenoxy)acetyl]-6,7,8,9-tetrahydro-5H-pyrimido[4,5-d]azepine]",≥ 90%
5,"O=C(COc1ccc(Cl)cc1)N1CCc2cnc(N3CCN(C4CCC4)CC3)nc2CC1 [Compound 326, 7-[(4-chlorophenoxy)acetyl]-2-(4-cyclobutylpiperazin-1-yl)-6,7,8,9-tetrahydro-5H-pyrimido[4,5-d]azepine]",≥ 90%
6,"Cc1cccc(OCC(=O)N2CCc3cnc(N4CCN(C5CCC5)CC4)nc3CC2)c1C [Compound 327, 2-(4-cyclobutylpiperazin-1-yl)-7-[(2,3-dimethylphenoxy)acetyl]-6,7,8,9-tetrahydro-5H-pyrimido[4,5-d]azepine]",≥ 90%
7,"Cc1cc(Cl)ccc1OCC(=O)N1CCc2cnc(N3CCN(C4CCC4)CC3)nc2CC1 [Compound 328, 7-[(4-chloro-2-methylphenoxy)acetyl]-2-(4-cyclobutylpiperazin-1-yl)-6,7,8,9-tetrahydro-5H-pyrimido[4,5-d]azepine]",≥ 90%
8,"CC(C)(C)c1ccc(OCC(=O)N2CCc3cnc(N4CCN(C5CCC5)CC4)nc3CC2)cc1 [Compound 329, 7-[(4-tert-butylphenoxy)acetyl]-2-(4-cyclobutylpiperazin-1-yl)-6,7,8,9-tetrahydro-5H-pyrimido[4,5-d]azepine]",≥ 90%
9,"O=C(COc1cccc(Cl)c1)N1CCc2cnc(N3CCN(C4CCC4)CC3)nc2CC1 [Compound 330, 7-[(3-chlorophenoxy)acetyl]-2-(4-cyclobutylpiperazin-1-yl)-6,7,8,9-tetrahydro-5H-pyrimido[4,5-d]azepine]",≥ 90%
10,"O=C(COc1ccc(Cl)cc1Cl)N1CCc2cnc(N3CCN(C4CCC4)CC3)nc2CC1 [Compound 331, 2-(4-cyclobutylpiperazin-1-yl)-7-[(2,4-dichlorophenoxy)acetyl]-6,7,8,9-tetrahydro-5H-pyrimido[4,5-d]azepine]",≥ 90%
11,"O=C(COc1ccc(Cl)c(Cl)c1)N1CCc2cnc(N3CCN(C4CCC4)CC3)nc2CC1 [Compound 332, 2-(4-cyclobutylpiperazin-1-yl)-7-[(3,4-dichlorophenoxy)acetyl]-6,7,8,9-tetrahydro-5H-pyrimido[4,5-d]azepine]",≥ 90%
12,"Cc1ccc(OCC(=O)N2CCc3cnc(N4CCN(C5CCC5)CC4)nc3CC2)c(C)c1 [Compound 333, 2-(4-cyclobutylpiperazin-1-yl)-7-[(2,4-dimethylphenoxy)acetyl]-6,7,8,9-tetrahydro-5H-pyrimido[4,5-d]azepine]",≥ 90%
13,"Cc1ccc(C)c(OCC(=O)N2CCc3cnc(N4CCN(C5CCC5)CC4)nc3CC2)c1 [Compound 334, 2-(4-cyclobutylpiperazin-1-yl)-7-[(2,5-dimethylphenoxy)acetyl]-6,7,8,9-tetrahydro-5H-pyrimido[4,5-d]azepine]",≥ 90%
14,"O=C(COc1cccc2ccccc12)N1CCc2cnc(N3CCN(C4CCC4)CC3)nc2CC1 [Compound 335, 2-(4-cyclobutylpiperazin-1-yl)-7-[(1-naphthyloxy)acetyl]-6,7,8,9-tetrahydro-5H-pyrimido[4,5-d]azepine]",≥ 90%
15,"O=C(COc1ccc2ccccc2c1)N1CCc2cnc(N3CCN(C4CCC4)CC3)nc2CC1 [Compound 336, 2-(4-cyclobutylpiperazin-1-yl)-7-[(2-naphthyloxy)acetyl]-6,7,8,9-tetrahydro-5H-pyrimido[4,5-d]azepine]",≥ 90%
16,"CC(C)(Oc1ccc(Cl)cc1)C(=O)N1CCc2cnc(N3CCN(C4CCC4)CC3)nc2CC1 [Compound 337, 7-[2-(4-chlorophenoxy)-2-methylpropanoyl]-2-(4-cyclobutylpiperazin-1-yl)-6,7,8,9-tetrahydro-5H-pyrimido[4,5-d]azepine]",≥ 90%
